Assay results as given in patent US11807693B2 (priority 2014, dated 2023).
One block for each compound: values may come before it. Non-standard residues stand in square brackets, D forms with d. Residues, ends and D or L forms follow the SMILES beside them. No end group written: not given here. ξ: configuration not given here. dBip = N[C@H](Cc1ccc(-c2ccccc2)cc1)C(=O)O; Oic = O=C(O)[C@@H]1C[C@@H]2CCCC[C@@H]2N1; Phe(4-Cl) = N[C@@H](Cc1ccc(Cl)cc1)C(=O)O; Oic(3aξ,7aξ) = O=C(O)[C@@H]1CC2CCCCC2N1; Phe(4-I) = N[C@@H](Cc1ccc(I)cc1)C(=O)O; hArg = N=C(N)NCCCC[C@H](N)C(=O)O; Cha = N[C@@H](CC1CCCCC1)C(=O)O; NMeL = CN[C@@H](CC(C)C)C(=O)O; Nle = CCCC[C@H](N)C(=O)O

Legend:
[1] = system: rats with myocardial infarction (MI)-induced heart failure; experiment: Hemodynamics in rats with MI-induced heart failure (Millar PV loop); type: in vivo, Lewis rats; conditions: continuous i.v. infusion, 30 min per dose
Protocol: To assess the cardiovascular effects of modified apelin polypeptides, the polypeptides were administered to rats with myocardial infarction (MI)-induced heart failure. Cardiac function was assessed via the Millar PV loop system.
Male Lewis rats at 2-3 month of age were used for the studies. MI was induced by ligation of the left anterior descending coronary artery (LAD). Echocardiography was performed at 1 week post-MI for animal enrollment. If ejection fraction (EF) was more than 40% and no infarct was identified from echocardiography images, these animals were excluded from the study. A Millar PV loop catheter was inserted into the right common carotid artery and then advanced to the left ventricle (LV) for cardiovascular hemodynamic assessment. The arterial pressure catheter was inserted into a femoral artery for peripheral blood pressure monitoring. Experiments were performed six to seven weeks following induction of MI. The following apelin polypeptides were given intravenously via jugular vein at various doses.
Peptides were continuously infused for 30 min at each dose. At the end of the experiment, the infarct size was verified by gross morphology. FIGS. 6-8 show the results of these experiments. The infarct size (38-39% of LV) was very similar among groups. […] Contractility (dp/dt max), ejection fraction (EF), mean arterial pressure (MAP), and heart rate (HR) changes over baseline are reported at the end of the 30 min infusion period for each polypeptide.

[2] = system: Rat Peritoneal Mast Cells
[3] = system: isolated perfused rat hearts; experiment: Langendorff isolated perfused rat heart; conditions: FIGS. 4A-D and 5A-D
From the text: To assess the hemodynamic cardiac function of the peptides, a Langendorff isolated heart system was used. The isolated heart from rat provides a broad spectrum of measurements that can include biochemical, metabolic, morphological and physiological indices. Although the system lacks neurohormonal influences, neural regulation and high coronary flows, the advantages of the system include the ability to study direct cardiac effects without systemic circulation and a host of peripheral interactions. This method can yield excellent dose-response relationships and provides critical insight into the pharmacological and physiological properties of the molecules of interest.
Animals were anesthetized through administration of 50-100 mg/kg dose of sodium pentobarbital via the intraperitoneal route. The heart was excised and gently cradled between fingers to avoid injury followed by lifting slightly before incising the aorta, vena cava and pulmonary vessels. Immediately after excision of the heart with aorta, the heart was mounted onto the cannula in the Langendorff apparatus via the aorta. […] The pressure was measured through a pressure sensing balloon catheter inserted in the left ventricular cavity. The intrinsic inotropy (force of muscle contraction) and lusitropy (cardiac relaxation) effects of the heart were assessed by dp/dtmax and dp/dtmin.

[4] = In vitro stability in rat kidney homogenate; type: in vitro ADME; conditions: rat, tissue homogenate
Procedure, shortened: (§1)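 Peptide 5 μM final; rat plasma / liver homog. / kidney homog.; 37° C., 4 hr. Quench MeOH + IS, vortex 15 min RT, spin 5500 g 15 min; supernatant by HR LC-MS.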

[5] = In vitro stability in rat liver homogenate; type: in vitro ADME; conditions: tissue homogenate
Procedure, shortened: as §1

[6] = In vitro stability in rat plasma; type: in vitro ADME
Procedure, shortened: as §1

[7] = target: T1, rat APJ receptor (Rattus norvegicus, UniProt Q9JHG3); experiment: [35S] GTPγS assay, rat APJ receptor; type: biochemical; conditions: rat APJ receptor, read-out: EC50 Rat APJ Receptor
T1 construct: expressed in transfected cells
T1 sequence (Q9JHG3 1-377): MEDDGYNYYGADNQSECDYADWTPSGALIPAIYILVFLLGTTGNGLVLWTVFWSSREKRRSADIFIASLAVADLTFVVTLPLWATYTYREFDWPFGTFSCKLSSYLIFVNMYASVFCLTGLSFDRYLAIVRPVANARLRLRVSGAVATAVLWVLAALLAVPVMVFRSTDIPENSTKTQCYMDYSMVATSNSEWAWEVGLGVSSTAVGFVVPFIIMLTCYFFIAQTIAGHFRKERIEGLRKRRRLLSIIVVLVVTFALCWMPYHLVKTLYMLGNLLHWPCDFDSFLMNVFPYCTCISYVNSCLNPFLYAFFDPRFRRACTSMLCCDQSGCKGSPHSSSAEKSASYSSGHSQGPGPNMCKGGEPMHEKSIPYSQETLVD
Protocol: The membranes were incubated with modified peptides in the assay buffer. […] Bound [^35S] GTPγS was separated from free radiolabel by filtration. The filter bound radioactivity was determined by liquid scintillation counting.

[8] = system: Human Mast Cells; experiment: Mast cell degranulation (histamine release), human mast cells; type: cell-based; conditions: human mast cells derived from CD34+ peripheral blood cells; 0.005 to 30 μM, 37° C., 30 min; less than 30% of total histamine content = negative
Protocol: Mast cell degranulation was measured for a number of the modified apelin polypeptides as follows in order to determine the potential immunogenic effect of the peptides. Mast cell degranulating peptide (MCDP) and compound 48/80 were used as positive controls. MCDP was obtained from Alomone Labs (Israel). Compound 48/80 was obtained from Sigma (Saint Louis, […].). Histamine Elisa kit was obtained from NEOGEN (Lexington, Ky.). Tyrode's buffer was obtained from Sigma (#T2397).
Mature human mast cells were derived from CD34+peripheral blood precursor cells after an 8-12 week differentiation/maturation process in vitro. […] Mast cell maturation was confirmed via expression of the mast cell markers c-kit and FcεRI via flow cytometry (>75% positive) and histamine release.
Mast cells (human or rat) were washed in Tyrode's buffer and seeded on 96-well plates (approx. 2000 mast cells/well). A 10 point dilution of test compounds were prepared in Tyrode's buffer and were incubated (0.005 to 30 μM) with mast cells at 37° C. for 30 min. […] A mast cell surfactant control is compared to a mast cell Tyrode's buffer control to ensure surfactants are not inducing histamine release in the absence of the lipidated molecule. Histamine release was quenched by placing the plates on ice for 5 min. Cells were centrifuged at 350×g at 4° C. for 5 min and the supernatant was collected. Released histamine was quantified by ELISA (Neogen Corporation) as per the kits' instruction. Briefly, the absorbance was measured at 650 nm in a microplate reader, following a direct competitive ELISA reaction with test samples compared against a standard curve. Total histamine content of the cells (0.1% Triton X-100) and spontaneous release were also measured to determine the percent of histamine release. Percent histamine release was calculated by the following formula: % histamine release=(ng/ml histamine release by test article−ng/ml spontaneous histamine release in Tyrode's buffer)/(ng/ml total histamine content of cells lysed in 0.1% Triton X-100−ng/ml spontaneous histamine release in Tyrode's buffer)×100.

[9] = kidney homogenate; conditions: rat, 37° C., up to 4 hr
[10] = liver homogenate; conditions: rat, 37° C., up to 4 hr

Compound: 109 (QRP[hArg][Cha]SHKG[Oic][Nle]P[Phe(4-Cl)]-OH; not fully specified (N-terminus)) [compound 109]
- hemodynamic function (dp/dt max, EF, MAP, HR) in MI rats [1]: dose-dependent effects

Compound: CSCC[C@H](NC(=O)[C@@H]1CCCN1C(=O)CNC(=O)[C@H](CCCCN)NC(=O)[C@H](Cc1cnc[nH]1)NC(=O)[C@H](CO)NC(=O)[C@H](CC(C)C)NC(=O)[C@H](CCCNC(=N)N)NC(=O)[C@@H]1CCCN1C(=O)[C@H](CCCNC(=N)N)NC(=O)[C@@H]1CCC(=O)N1)C(=O)N1CCC[C@H]1C(=O)N[C@@H](Cc1ccccc1)C(=O)O [SEQ ID NO: 6, reference compound]
- hemodynamic function (dp/dt max, EF, MAP, HR) in MI rats [1]: dose-dependent effects
- Cause Histamine Release? [2]: No

Compound: CC(=O)N[C@@H](CCCCNC(=N)N)C(=O)N[C@H](CCCNC(=N)N)C(=O)N[C@@H](CCC(N)=O)C(=O)N[C@@H](CCCCNC(=N)N)C(=O)N1CCC[C@H]1C(=O)N[C@H](CCCNC(=N)N)C(=O)N(C)[C@@H](CC(C)C)C(=O)N[C@@H](CO)C(=O)N[C@@H](Cc1c[nH]cn1)C(=O)N[C@@H](CCCCN)C(=O)NCC(=O)N1C2CCCCC2C[C@H]1C(=O)N[C@@H](Cc1ccc(I)cc1)C(=O)N1CCC[C@H]1C(=O)N[C@H](Cc1ccc(-c2ccccc2)cc1)C(=O)O (stereo partly drawn) [SEQ ID NO: 16, Acetyl-[hArg][r]Q[hArg]P[r][NMeLeu]SHKG[Oic][pI-Phe]P[D-Bip]{COOH}] (Ac-[hArg][dR]Q[hArg]P[dR][NMeL]SHKG[Oic(3aξ,7aξ)][Phe(4-I)]P[dBip]-OH)
- systolic and diastolic function in isolated perfused rat hearts [3]: dose-dependent improvement of both systolic and diastolic function

Compound: CC(=O)N[C@@H](CCC(N)=O)C(=O)N[C@@H](CCCCNC(=N)N)C(=O)N1CCC[C@H]1C(=O)N[C@H](CCCNC(=N)N)C(=O)N(C)[C@@H](CC(C)C)C(=O)N[C@@H](CO)C(=O)N[C@@H](Cc1c[nH]cn1)C(=O)N[C@@H](CCCCN)C(=O)NCC(=O)N1C2CCCCC2C[C@H]1C(=O)N[C@@H](Cc1ccc(I)cc1)C(=O)N1CCC[C@H]1C(=O)N[C@H](Cc1ccc(-c2ccccc2)cc1)C(=O)O (stereo partly drawn) [SEQ ID NO: 53, {Acetyl-NH}Q[hArg]Pr[NMeLeu]SHKG[Oic][pI-Phe]P[D-Bip]{COOH}] (Ac-Q[hArg]P[dR][NMeL]SHKG[Oic(3aξ,7aξ)][Phe(4-I)]P[dBip]-OH)
- systolic and diastolic function in isolated perfused rat hearts [3]: dose-dependent improvement of both systolic and diastolic function

Compound: {TDA}[AC4Abu][Aeea][Aeea]RQRP[hArg][NMeLeu]SHKG[Oic][pI-Phe]P[D-Bip]{COOH}
- not cleaved [9]: >90.0 % remaining at 4 hours
- not cleaved [10]: >90.0 % remaining at 4 hours

Now from value to compound, other results behind:

- remaining at 4 h, 5 μM [4]: 44.5%
- remaining at 4 h, 5 μM [5]: 40.7%
- remaining at 4 h, 5 μM [6]: 86.1%
Compound: CC(=O)N[C@@H](CCCCNC(=N)N)C(=O)N[C@H](CCCNC(=N)N)C(=O)N[C@@H](CCC(N)=O)C(=O)N[C@@H](CCCCNC(=N)N)C(=O)N1CCC[C@H]1C(=O)N[C@H](CCCNC(=N)N)C(=O)N(C)[C@@H](CC(C)C)C(=O)N[C@@H](CO)C(=O)N[C@@H](Cc1c[nH]cn1)C(=O)N[C@@H](CCCCN)C(=O)NCC(=O)N1[C@H](C(=O)N[C@@H](Cc2ccc(I)cc2)C(=O)N2CCC[C@H]2C(=O)N[C@H](Cc2ccc(-c3ccccc3)cc2)C(=O)O)C[C@@H]2CCCC[C@@H]21 [compound 16] (Ac-[hArg][dR]Q[hArg]P[dR][NMeL]SHKG[Oic][Phe(4-I)]P[dBip]-OH)
- hemodynamic function (dp/dt max, EF, MAP, HR) in MI rats [1]: dose-dependent effects

- remaining at 4 h, 5 μM [5]: < 1%
- EC50 [7]: 0.384 nM
- Induce Histamine Release? Human Mast Cells [8]: No
- remaining at 4 h, 5 μM [6]: 59.6%
Compound: CCCC[C@H](NC(=O)[C@@H]1CCCN1C(=O)CNC(=O)[C@H](CCCCN)NC(=O)[C@H](Cc1c[nH]cn1)NC(=O)[C@H](CO)NC(=O)[C@H](CC(C)C)NC(=O)[C@H](CCCNC(=N)N)N(C)C(=O)[C@@H]1CCCN1C(=O)[C@H](CCCNC(=N)N)NC(=O)[C@H](CCC(N)=O)NC(C)=O)C(=O)N1CCC[C@H]1C(=O)N[C@@H](Cc1ccc(Cl)cc1)C(=O)O [compound 68]

- remaining at 4 h, 5 μM [5]: < 1%
- remaining at 4 h, 5 μM [6]: < 1%
Compound: CCCC[C@H](NC(=O)[C@@H]1CCCN1C(=O)CNC(=O)[C@H](CCCCN)NC(=O)[C@H](Cc1c[nH]cn1)NC(=O)[C@H](CO)NC(=O)[C@H](CC(C)C)NC(=O)[C@H](CCCNC(=N)N)N(C)C(=O)[C@@H]1CCCN1C(=O)[C@H](CCCNC(=N)N)NC(=O)[C@H](CCC(N)=O)NC(=O)COCCOCCNC(=O)COCCOCCNC(=O)CC[C@H](NC(=O)CCC)C(=O)O)C(=O)N1CCC[C@H]1C(=O)N[C@@H](Cc1ccc(Cl)cc1)C(=O)O [compound 491]
- Induce Histamine Release? Human Mast Cells [8]: No

- not cleaved [9]: >90.0 % remaining at 4 hours
- not cleaved [10]: >90.0 % remaining at 4 hours
Compound: {H2} [MerPr] (10K mPEG acetamide) Q R [aMePro] [hArg] [aMeLeu] S H K G P [Nle] P [4-Cl-F] {COOH}
